{
  "source": "patent US20050120392A1",
  "about": "“Transgenic zebrafish models for thrombosis” (priority 2002, published 2005)",
  "key": {"platelets": {"tested_on": "platelets", "test": "In vivo thrombosis assay: thrombotic agent injected into heart cavity of TG(GPIIb:eGFP) larvae", "design": "species or system zebrafish", "protocol": "Only larvae homozygous for the GPIIb-eGFP transgene, were used for the assay. […] Injection of compounds into the heart cavity of larvae was performed using a glass-pulled capillary needle ( 15 μm in diameter at the tip) attached to a microinjector. Phenol red (0.2%) was routinely used for all injections to ensure accurate injection into the heart cavity. All larvae were anaesthetized with tricaine during the injection and returned to fresh fish water before analysis. Fluorescence was observed using a stereomicroscope with a GFP specific filter set. […] The counts were done for sections of the larvae (FIG. 2) and later totaled for the larvae. […] In these experiments (morpholino), control larvae (ADP alone) had no moving platelets. TG(GPIIb:GFP) zebrafish were bred to produce homozygous TG(GPIIb:eGFP) embryos. […] At 6 dpf, the larvae have developed a swim bladder and most (or all) of their yolk sac has disappeared."}, "zebrafish larvae": {"tested_on": "zebrafish larvae", "format": "in vivo", "protocol": "Only larvae homozygous for the GPIIb-eGFP transgene, were used for the assay. Soaking experiments with anti-thrombotic compounds were initiated when larvae were 5 dpf and injections with thrombotic agents were performed the next day. Injection of compounds into the heart cavity of larvae was performed using a glass-pulled capillary needle (˜15 μm in diameter at the tip) attached to a microinjector. Phenol red (0.2%) was routinely used for all injections to ensure accurate injection into the heart cavity. All larvae were anaesthetized with tricaine during the injection and returned to fresh fish water before analysis. Fluorescence was observed using a stereomicroscope with a GFP specific filter set."}, "[1]": {"tested_on": "ADP-induced platelet aggregation", "test": "In vivo anti-thrombotic assay: ADP-induced aggregate formation in TG(GPIIb:eGFP) larvae", "design": "species or system zebrafish", "settings": "for platelet aggregation in zebrafish (summary statement): in vivo", "protocol": "(§1) Only larvae homozygous for the GPIIb-eGFP transgene, were used for the assay. […] Injection of compounds into the heart cavity of larvae was performed using a glass-pulled capillary needle ( 15 μm in diameter at the tip) attached to a microinjector. Phenol red (0.2%) was routinely used for all injections to ensure accurate injection into the heart cavity. All larvae were anaesthetized with tricaine during the injection and returned to fresh fish water before analysis. Fluorescence was observed using a stereomicroscope with a GFP specific filter set. […] The counts were done for sections of the larvae (FIG. 2) and later totaled for the larvae. […] In these experiments (morpholino), control larvae (ADP alone) had no moving platelets."}, "P2Y12 mRNA": {"tested_on": "P2Y12 mRNA", "test": "P2Y12 morpholino knockdown in ADP thrombosis assay", "format": "in vivo, zebrafish", "settings": "2.4 ng morpholino, 90 pmol ADP", "from_the_text": "(§2) For some experiments (aspirin, Reopro, Integrilin, Ticlopidine and hirudin), larvae were scored according to the number of stationary platelets observed. The counts were done for sections of the larvae (FIG. 2) and later totaled for the larvae. […] In these experiments (morpholino), control larvae (ADP alone) had no moving platelets.\n(§3) P2Y12 (5′-[…]-3′) and GPIIb (5′-[…]-3′) morpholinos were purchased from Gene Tools (Philomath, Oreg.). Both of these morpholinos were designed to recognize the first 25 bases of coding sequence. Morpholino—(0.1 mM stock contained in 0.2% phenol red) or mock—(0.2% phenol red) injections were performed in one to four cell stage of homozygous TG(GPIIb:eGFP) zebrafish. These embryos were checked 2-4 hours after injection to eliminate non-fertilized or poorly developed eggs. The embryos were placed into Holtfretter's solution at 27° C. until used in the thrombosis assay (5-6 dpf). For the thrombosis assay, larvae were injected with 90 pmol of ADP, a concentration that immobilized all platelets in the larvae. A positive or negative effect was designated for each larva when there were moving or no moving platelets, respectively, after ADP challenge."}, "[2]": {"tested_on": "thrombin-induced platelet aggregation", "test": "In vivo anti-thrombotic assay: thrombin-induced aggregate formation in TG(GPIIb:eGFP) larvae", "design": "species or system zebrafish", "protocol": "as §1"}, "GPIIb mRNA": {"tested_on": "GPIIb mRNA", "test": "GPIIb morpholino knockdown in ADP thrombosis assay", "format": "in vivo, zebrafish", "settings": "2.4 ng morpholino at 1-4 cell stage, 90 pmol ADP at 5-6 dpf, n=34", "from_the_text": "as §2, §3"}, "[3]": {"settings": "5 dpf larvae soaked overnight in varying concentrations, 90 pmol ADP next day"}, "[4]": {"settings": "Plavix approximately 0.2-1 μg/ml overnight"}, "[5]": {"settings": "GPIIb-eGFP transgenic (homozygous), zebrafish, in vivo"}, "[6]": {"settings": "thrombin 3.38 ng (0.018 NIH unit)"}},
  "note": "Entries after “also recorded” stand apart in the source; their conditions may differ. Where two headings read alike, the source gives them in different places. Bridge positions count the residues as written; N and C are the ends. Square brackets hold non-standard residues; d marks the D form. Peptide text beside a SMILES is read from it. hArg = N=C(N)NCCCC[C@H](N)C(=O)O; Mpa = O=C(O)CCS",
  "data": [
    {"compound": "Nc1ncnc2c1ncn2[C@@H]1O[C@H](COP(=O)(O)OP(=O)(O)O)[C@@H](O)[C@H]1O", "note": "[ADP]", "values": [
      {"measurement": "number of macroaggregates compared with phenol red-injected group", "setting": "platelets; 90 pmol ADP", "result": "not significant"},
      {"measurement": "platelet movement after injection", "setting": "platelets; 90 pmol ADP into heart cavity", "result": "most or all of the platelets within the larvae stopped moving; also recorded: a complete inhibition of platelet movement was observed"},
      {"measurement": "time until platelets stopped moving", "setting": "platelets; 90 pmol ADP into heart cavity", "result": "≤ 5", "unit": "min"},
      {"measurement": "microaggregates found in each injected larva", "setting": "platelets; 90 pmol ADP into heart cavity, 6-7 dpf larvae, n=16", "result": "about 38±3 microaggregates"},
      {"measurement": "duration of the effect", "setting": "platelets; 90 pmol ADP, observed for up to 8 hours", "result": "several hours"},
      {"measurement": "platelet movement after injection", "setting": "platelets; ADP, concentrations lower than 90 pmol", "result": "did not induce a complete inhibition of platelet movement"},
      {"measurement": "lethality (beating heart)", "setting": "zebrafish larvae; 90 pmol ADP into heart cavity", "result": "not lethal"},
      {"measurement": "time within which the larva died", "setting": "zebrafish larvae; 180 pmol ADP into heart cavity, n=8", "result": "5 to 10", "unit": "min"}
    ]},
    {"compound": "CNC[C@H](O)c1ccc(O)c(O)c1", "note": "[epinephrine]", "values": [
      {"measurement": "effect of collagen on platelet aggregation", "setting": "platelets; epinephrine 18 pg in conjunction with collagen", "result": "did not enhance"}
    ]},
    {"compound": "CCCCS(=O)(=O)N[C@@H](Cc1ccc(OCCCCC2CCNCC2)cc1)C(=O)O", "note": "[Aggrastat, tirofiban]", "values": [
      {"measurement": "ADP-induced aggregation", "setting": "[1]; Aggrastat 100 μg/ml soak 24 hours plus 240 ng injected 10 min before ADP", "result": "inhibited"},
      {"measurement": "ADP-induced aggregation", "setting": "[1]; Aggrastat 10-50 μg/ml overnight", "result": "ineffective"},
      {"measurement": "ADP-induced aggregate formation", "setting": "[1]; Aggrastat soaking alone or injection alone", "result": "did not antagonize"}
    ]},
    {"compound": "N=C(N)NCCCC[C@@H]1NC(=O)CCSSC[C@@H](C(N)=O)NC(=O)[C@@H]2CCCN2C(=O)[C@H](Cc2c[nH]c3ccccc23)NC(=O)[C@H](CC(=O)O)NC(=O)CNC1=O", "note": "[Integrilin, eptifibatide] ([Mpa][hArg]GDWPC-NH2; disulfide 1-7)", "values": [
      {"measurement": "ADP-induced microaggregate formation", "setting": "[1]; [3]", "result": "dose-dependent inhibition; also recorded: dose-dependently prevented"},
      {"measurement": "number of platelet aggregates compared to control group", "setting": "[1]; Integrilin 0.25-1.0 mg/ml overnight soak", "result": "no change"},
      {"measurement": "survival after overnight treatment", "setting": "zebrafish larvae; Integrilin 5 mg/ml", "result": "all larvae died"}
    ]},
    {"compound": "5′-AGCTGAGCTGCGTTGTTTGCTCCAT-3′ (morpholino, further chemistry not given here) [P2Y12 morpholino]", "values": [
      {"measurement": "effectiveness (larvae with moving platelets after ADP)", "setting": "P2Y12 mRNA", "result": 50, "unit": "%"}
    ]},
    {"compound": "COC(=O)[C@H](c1ccccc1Cl)N1CCc2sccc2C1", "note": "[Plavix, Clopidogrel]", "values": [
      {"measurement": "ADP-induced aggregate formation", "setting": "[1]; [4]", "result": "partial inhibition"},
      {"measurement": "platelet aggregation in zebrafish (summary statement)", "setting": "[1]", "result": "effective at inhibiting"},
      {"measurement": "aggregation induced by a high concentration of thrombin", "setting": "[2]; [4]", "result": "not effective"},
      {"measurement": "lethal dose", "setting": "zebrafish larvae; [5]", "result": "≥ 5", "unit": "µg/mL"}
    ]},
    {"compound": "hirudin", "values": [
      {"measurement": "ADP-induced aggregation", "setting": "[1]; hirudin 0.029 unit, 90 pmol ADP", "result": "did not have any effect"},
      {"measurement": "thrombin-induced aggregate formation", "setting": "[2]; hirudin 0.029 unit given simultaneously with thrombin 0.018 NIH unit", "result": "no aggregation was observed; also recorded: inhibited"}
    ]},
    {"compound": "thrombin", "values": [
      {"measurement": "duration of arrested platelet movement", "setting": "platelets; [6]", "result": 30, "unit": "min"},
      {"measurement": "time after which platelets began to move more freely", "setting": "platelets; [6]", "result": "≤ 25", "unit": "min"},
      {"measurement": "platelet aggregation / arrest after injection", "setting": "platelets; thrombin 3.38 ng (0.018 NIH unit) into heart cavity", "result": "induced platelet aggregation; also recorded: most of the platelets were arrested"},
      {"measurement": "platelets arrested", "setting": "platelets; thrombin 3.38 ng (0.018 NIH unit), 5 min after injection, n=15", "result": "85-90%"},
      {"measurement": "platelet mobility (recovery)", "setting": "platelets; thrombin 3.38 ng, within an hour after injection", "result": "most platelets were mobile"}
    ]},
    {"compound": "Clc1ccccc1CN1CCc2sccc2C1", "note": "[Ticlopidine]", "values": [
      {"measurement": "concentration at which larvae did not survive the overnight treatment", "setting": "zebrafish larvae; [5]", "result": "≥ 10", "unit": "µM"}
    ]},
    {"compound": "CC(=O)Oc1ccccc1C(=O)O", "note": "[aspirin, acetylsalicylic acid]", "values": [
      {"measurement": "ADP-induced microaggregate formation", "setting": "[1]; [3]", "result": "prevented"},
      {"measurement": "microaggregate count within control phenol red-injected larvae", "setting": "[1]; aspirin 115 μg/ml, no ADP", "result": "trend toward a decrease"},
      {"measurement": "ADP-induced microaggregate formation", "setting": "[1]; aspirin 95 and 105 μg/ml, overnight soak before ADP challenge", "result": "partially prevented"},
      {"measurement": "platelet aggregation in zebrafish (summary statement)", "setting": "[1]", "result": "effective at inhibiting"},
      {"measurement": "survival after overnight treatment", "setting": "zebrafish larvae; aspirin 125 μg/ml", "result": "the larvae died"},
      {"measurement": "effect on platelet movement or development of the larvae", "setting": "zebrafish larvae; aspirin alone", "result": "no adverse effect"}
    ]},
    {"compound": "CC1CC(=O)NN=C1c1cc(-n2ccnc2)cs1", "note": "(centres unmarked) [motapizone]", "values": [
      {"measurement": "ADP-induced aggregation", "setting": "[1]; motapizone 50 μM overnight soak", "result": "Partial inhibition"},
      {"measurement": "ADP-induced microaggregate formation", "setting": "[1]; motapizone 250 and 100 μM, overnight soak of 5 dpf larvae", "result": "effective in blocking"},
      {"measurement": "action of ADP on platelet aggregation", "setting": "[1]; motapizone injected 5 min before ADP challenge", "result": "ineffective"},
      {"measurement": "ADP-induced aggregation", "setting": "[1]; motapizone, concentrations lower than 50 μM", "result": "ineffective"},
      {"measurement": "platelet aggregation in zebrafish (summary statement)", "setting": "[1]", "result": "decreases platelet aggregation"},
      {"measurement": "platelet aggregation in zebrafish (summary statement)", "setting": "[1]; listed as Motapizone", "result": "effective in reducing"}
    ]},
    {"compound": "5′-GACTGAATTCCAGTTTCTTGTCCAT-3′ (morpholino backbone, further chemistry not given here) [GPIIb morpholino]", "values": [
      {"measurement": "tested larvae with moving platelets after ADP injection", "setting": "GPIIb mRNA", "result": 76.5, "unit": "%"}
    ]},
    {"compound": "Reopro: human/murine chimeric antibody, GPIIb/IIIa antagonist", "values": [
      {"measurement": "ADP-induced microaggregate formation", "setting": "[1]; Reopro 0.5-5 μg/ml overnight soak plus 120 ng injected 10 min before ADP", "result": "dose-dependently inhibited"},
      {"measurement": "ADP-induced aggregation of platelets", "setting": "[1]; Reopro injection alone (120 ng or less), no overnight soak", "result": "did not antagonize"},
      {"measurement": "ADP-induced microaggregate formation", "setting": "[1]; Reopro overnight soak plus 60 ng injected", "result": "no effect"}
    ]}
  ]
}
